Like-named read-outs stand apart in the source and are kept apart here.
Experiments:
[1] = biological target: T1, human β3-AR (Homo sapiens, UniProt P13945); assay: cAMP accumulation (SPA) in CHO cells transfected with human β3 adrenergic receptor; assay type: cell-based; conditions: for Emax: read-out: IA(β3)
T1 construct: Full length β3 AR clones (402 amino acids) containing the last 6 amino acids of hβ3; expressed in transfected cells; host or cells: CHO (Chinese hamster ovary) cells
Protocol: The ability of compounds of this invention to treat or inhibit disorders related to insulin resistance or hyperglycemia was established with representative compounds of this invention in the following standard pharmacological test procedures, which measured the binding selectivity to the β1, β2, and β3 adrenergic receptors. Binding to the receptors was measured in Chinese Hamster ovary (CHO) cells that were transfected with adrenergic receptors. The following briefly summarizes the procedures used and results obtained.
Cloning of Human β3-AR Genomic DNA: cDNA was constructed by ligating four polymerase chain reaction (PCR) products using the following primers: an ATG-Narl fragment, sense primer 5′-[…]3′ and anti-sense primer 5′[…]3′; a Narl-Accl fragment, 5′[…]3′ as sense and 5′[…]3′ as anti-sense primer; an Accli-Styl fragment, sense primer 5′[…]3′ and anti-sense primer 5′[…]3′ and a Styl-TAG fragment, with sense primer 5′[…]3′ and anti-sense primer 5′[…]3′. The corresponding primer sequences are described in Mantzoros, C. S., etal, Diabetes 45: 909-914 (1996). The four fragments are ligated into a pUC 18 plasmid (Gibco-BRL) and sequenced. Full length β3 AR clones (402 amino acids) containing the last 6 amino acids of hβ3 . . . AR are prepared with the β3-βARpcDNA3 from ATTC.
Binding Procedure: Clones expressing receptor levels of 70 to 110 fmoles/mg protein were used in the test procedures. CHO cells were grown in 24-well tissue culture plates in Dulbecco's Modified Eagle Media with 10% fetal bovine serum, MEM non-essential amino acids, Penicillin-Streptompycin and Geneticin. On the day of test procedure, growth medium was replaced with preincubation media (Dulbecco's Modified Eagle Media and incubated for 30 minutes at 37° C. Preincubation medium was replaced with 0.2 ml treatment medium containing DMEM media containing 250 μM IBMX (isobutyl-1-methylxantine) plus 1 mM ascorbic acid with test compound dissolved in DMSO. Test compounds were tested over a concentration range of 10^−9 M to 10^−5 M for β3 cells and 10^″8 to 10^″4 M for β1 and β2 transfected cells. Isoproterenol (10^−5 M) was used as an internal standard for comparison of activity. Cells were incubated at 37° C. on a rocker for 30 min with the β3 cells and 15 min for β1 and β2 cells. Incubation was stopped with the addition of 0.2 N HCI and neutralized with 2.5 N NaOH. The plates, containing the cells and neutralized media, were stored at −20 degrees celsius until ready to test for cAMP using the SPA test kit (Amersham).
Data Analysis and Results: Data collected from the SPA test procedure were analyzed as percent of the maximal isoproterenol response at 10^−5 M. Activity curves were plotted using the SAS statistical and graphics software. EC50 values were generated for each compound and the maximal response (IA) developed for each compound is compared to the maximal response of isoproternol at 10^−5 M from the following formula: [formula]

[2] = CHO cells expressing human β3-AR, cAMP, 30 min at 37° C., 10^-9 M to 10^-5 M, read-out: EC50(β3)
[3] = maximal response compared to the maximal response of isoproterenol at 10^-5 M, CHO cells expressing human β3-AR

T1 sequence (P13945 whole entry): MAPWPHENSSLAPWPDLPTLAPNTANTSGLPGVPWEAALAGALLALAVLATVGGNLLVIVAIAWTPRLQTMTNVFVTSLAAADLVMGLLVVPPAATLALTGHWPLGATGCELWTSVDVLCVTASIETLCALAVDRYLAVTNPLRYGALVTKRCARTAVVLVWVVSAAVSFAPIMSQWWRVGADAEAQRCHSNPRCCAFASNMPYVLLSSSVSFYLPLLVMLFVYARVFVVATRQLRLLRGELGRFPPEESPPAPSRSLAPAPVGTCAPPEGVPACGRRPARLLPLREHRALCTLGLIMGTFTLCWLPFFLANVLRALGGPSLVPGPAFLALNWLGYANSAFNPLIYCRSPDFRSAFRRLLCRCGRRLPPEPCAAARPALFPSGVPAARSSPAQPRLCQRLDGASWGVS

| SMILES | EC50 [1, 2] | Emax [1, 3] | melting point | EC50 [1] | Emax ([1]; CHO) |
| --- | --- | --- | --- | --- | --- |
| O=C1NC(=O)C(Nc2ccc(CCNC[C@H](O)COc3ccc(OCc4ccccc4)cc3)cc2)S1 (stereo partly shown) [Example 4, 5-{4-[2-({(2 S)-3-[4-(Benzyloxy)phenoxy]-2-hydroxypropyl}amino)ethyl]anilino}-1,3-thiazolidine-2,4-dione] | 1 nM | 85% | 152 °C |  |  |
| O=C1NC(=O)C(Nc2ccc(CCNC[C@H](O)COc3ccc(F)cc3)cc2)S1 (stereo partly shown) [Example 8, 5-[4-(2-{[(2 S)-3-(4-Fluorophenoxy)-2-hydroxypropyl]amino}ethyl)anilino]-1,3-thiazolidine-2,4-dione] | 14 nM | 66% |  |  |  |
| O=C1NC(=O)C(Nc2ccc(CCNC[C@H](O)c3cccc(Cl)c3)cc2)S1 (stereo partly shown) [Example 6, 5-[4-(2-{[(2 R)-2-(3-Chlorophenyl)-2-hydroxy-ethyl]amino}ethyl)anilino]-1,3-thiazolidine-2,4-dione] | 7 nM | 83% | 162 °C |  |  |
| O=C1NC(=O)C(Nc2ccc(CCNC[C@H](O)COc3ccccc3)cc2)S1 (stereo partly shown) [Example 9, 5-[4-(2-{[(2 S)-2-Hydroxy-3-phenoxypropyl]amino}ethyl)anilino]-1,3-thiazolidine-2,4-dione] | 0.9 nM | 98% |  |  |  |
| O=C1NC(=O)C(Nc2ccc(CCNC[C@H](O)c3ccccc3)cc2)S1 (stereo partly shown) [Example 7, 5-[4-(2-{[(2 R)-2-Hydroxy-2-phenylethyl]amino}ethyl)anilino]-1,3-thiazolidine-2,4-dione] | 83 nM | 94% |  |  |  |
| CC(Cc1ccc(NC2SC(=O)NC2=O)cc1)NC[C@H](O)c1cccc(Cl)c1 (stereo partly shown) [Example 18, 5-[4-(2-{[(2 R)-2-(3-Chlorophenyl)-2-hydroxyethyl]amino}propyl)anilino]-1,3-thiazolidine-2,4-dione] |  |  |  | 9 nM | 89% |
| O=C1NC(=O)C(Nc2ccc(CCNC[C@H](O)COc3cccc(O)c3)cc2)S1 (stereo partly shown) [Example 12, 5-[4-(2-{[(2 S)-2-Hydroxy-3-(3-hydroxyphenoxy)propyl]amino}ethyl)anilino]-1,3-thiazolidine-2,4-dione] | 3 nM | 117% |  |  |  |
| O=C1NC(=O)C(Nc2ccc(CCNC[C@H](O)COc3ccc(O)cc3)cc2)S1 (stereo partly shown) [Example 5, 5-[4-(2-{[(2 S)-2-Hydroxy-3-(4-hydroxyphenoxy)propyl]amino}ethyl)anilino]-1,3-thiazolidine-2,4-dione] | 20 nM | 99% | 165 °C |  |  |

Continued, in another order:

| EC50 [1, 2] | Emax [1, 3] | melting point | SMILES | EC50 [1] | Emax ([1]; CHO) |
| --- | --- | --- | --- | --- | --- |
| 9 nM | 111% |  | CS(=O)(=O)Nc1cc([C@H](O)CNCCc2ccc(NC3SC(=O)NC3=O)cc2)ccc1O (stereo partly shown) [Example 14, N{5-[(1 S)-2-({4-[(2,4-Dioxo-1,3-thiazolidin-5-yl)amino]phenethyl}amino)-1-hydroxyethyl]-2-hydroxyphenyl}methanesulfonamide] |  |  |
| 17 nM | 68% |  | CN(c1ccc(CCNC[C@H](O)COc2ccccc2)cc1)C1SC(=O)NC1=O (stereo partly shown) [Example 17, 5-[4-(2-{[(2 S)-2-Hydroxy-3-phenoxypropyl]amino}ethyl)(methyl)anilino]-1,3-thiazolidine-2,4-dione.] |  |  |
| 20 nM | 71% |  | O=C1NC(=O)C(Nc2ccc(CCNC[C@@H](O)COc3cccc4[nH]c(=O)[nH]c34)cc2)S1 (stereo partly shown) [Example 19, 5-{4-[2-({(2 R)-2-Hydroxy-3-[(2-oxo-2,3-di hydro-1 H-benzimidazol-4-yl)oxy]propyl}amino)ethyl]anilino}-1,3-thiazolidine-2,4-dione] |  |  |
| 12 nM | 104% |  | O=C1NC(=O)C(Nc2ccc(CCNC[C@H](O)COc3cccc4[nH]c5ccccc5c34)cc2)S1 (stereo partly shown) [Example 13, 5-[4-(2-{[(2 S)-3-(9 H-Carbazol-4-yloxy)-2-hydroxypropyl]amino}ethyl)anilino]-1 ,3-thiazolidine-2,4-dione] |  |  |
| 3 nM | 109% |  | O=C1NC(=O)C(N(Cc2ccc(Br)cc2)c2ccc(CCNC[C@H](O)COc3ccccc3)cc2)S1 (stereo partly shown) [Example 29, 5-((4-Bromo-benzyl)-{4-[2-((2 S)-2-hydroxy-3-phenoxy-propylamino)-ethyl]-phenyl}-amino)-thiazolidine-2,4-dione] |  |  |
| 96 nM | 88% |  | O=C1NC(=O)C(Nc2ccc(CCNC[C@H](O)c3cccnc3)cc2)S1 (stereo partly shown) [Example 31, 5-{4-[2-((2 R)-2-Hydroxy-2-pyridin-3-yl-ethylamino)-ethyl]-phenylamino}-thiazolidine-2,4-dione] |  |  |

From patent US6465501B2, “Azolidines as β3 adrenergic receptor agonists” (Wyeth, priority 2000, dated 2002)
